Measured values published in paper PMC6330093 (Bioconjugate chemistry, 2017).

Columns and labels:
proteinase K = proteinase K (Parengyodontium album, UniProt P06873); assay: HPLC-based proteolysis assay with proteinase K; format: in vitro ADME
[1] = variable temperature CD, 50 μM protein, 20 mM sodium phosphate buffer, pH 7

Chain of proteinase K (P06873 106-384, species assumed): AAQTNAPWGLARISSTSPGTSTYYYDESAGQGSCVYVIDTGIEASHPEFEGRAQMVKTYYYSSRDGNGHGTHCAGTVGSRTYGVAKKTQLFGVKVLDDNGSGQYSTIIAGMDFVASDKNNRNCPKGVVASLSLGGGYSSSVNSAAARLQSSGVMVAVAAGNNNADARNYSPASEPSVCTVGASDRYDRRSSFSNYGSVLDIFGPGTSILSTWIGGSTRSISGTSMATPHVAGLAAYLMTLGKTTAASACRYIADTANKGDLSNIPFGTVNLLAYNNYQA

| SMILES | k, apparent proteolysis rate constant (proteinase K) [s^−1 × 10^3] | Tm (melting temperature) [1] [°C] |
| --- | --- | --- |
| CC[C@H](C)[C@H](NC(=O)[C@H](Cc1c[nH]cn1)NC(=O)[C@H](CC(N)=O)NC(=O)[C@H](Cc1ccccc1)NC(=O)[C@H](Cc1ccc(O)cc1)NC(=O)[C@H](Cc1ccc(O)cc1)NC(=O)[C@@H](NC(=O)[C@H](CCCNC(=N)N)NC(=O)CNC(=O)[C@H](CO)NC(=O)[C@H](CCC(N)=O)NC(=O)[C@H](CCCNC(=N)N)NC(=O)[C@H](CO)NC(=O)[C@H](CCSC)NC(=O)[C@H](CCCNC(=N)N)NC(=O)[C@H](CCCCN)NC(=O)[C@H](CCC(=O)O)NC(=O)[C@H](Cc1c[nH]c2ccccc12)NC(=O)CNC(=O)[C@@H]1CCCN1C(=O)[C@@H]1CCCN1C(=O)[C@H](CC(C)C)NC(=O)[C@@H](N)CCCCN)C(C)C)C(=O)N[C@H](C(=O)N[C@@H](CC(N)=O)C(=O)N[C@@H](C)C(=O)N[C@@H](CO)C(=O)N[C@@H](CCC(N)=O)C(=O)N[C@@H](Cc1ccccc1)C(=O)N[C@@H](CCC(=O)O)C(=O)N[C@@H](CCCNC(=N)N)C(=O)N1CCC[C@H]1C(=O)N[C@@H](CO)C(=O)NCC(=O)O)[C@@H](C)O [18Q] | 7.8 ±0.4 | 58.5 ±0.2 |
| CC[C@H](C)[C@H](NC(=O)[C@H](Cc1c[nH]cn1)NC(=O)[C@H](CC(N)=O)NC(=O)[C@H](Cc1ccccc1)NC(=O)[C@H](Cc1ccc(O)cc1)NC(=O)[C@H](CCC(N)=O)NC(=O)[C@@H](NC(=O)[C@H](CCCNC(=N)N)NC(=O)CNC(=O)[C@H](CO)NC(=O)[C@H](CO)NC(=O)[C@H](CCCNC(=N)N)NC(=O)[C@H](CO)NC(=O)[C@H](CCSC)NC(=O)[C@H](CCCNC(=N)N)NC(=O)[C@H](CCCCN)NC(=O)[C@H](CCC(=O)O)NC(=O)[C@H](Cc1c[nH]c2ccccc12)NC(=O)CNC(=O)[C@@H]1CCCN1C(=O)[C@@H]1CCCN1C(=O)[C@H](CC(C)C)NC(=O)[C@@H](N)CCCCN)C(C)C)C(=O)N[C@H](C(=O)N[C@@H](CC(N)=O)C(=O)N[C@@H](C)C(=O)N[C@@H](CO)C(=O)N[C@@H](CCC(N)=O)C(=O)N[C@@H](Cc1ccccc1)C(=O)N[C@@H](CCC(=O)O)C(=O)N[C@@H](CCCNC(=N)N)C(=O)N1CCC[C@H]1C(=O)N[C@@H](CO)C(=O)NCC(=O)O)[C@@H](C)O [23Q] | 46.9 ±5.3 | 39.4 ±0.2 |
| CC[C@H](C)[C@H](NC(=O)[C@H](CCC(N)=O)NC(=O)[C@H](CC(N)=O)NC(=O)[C@H](Cc1ccccc1)NC(=O)[C@H](Cc1ccc(O)cc1)NC(=O)[C@H](Cc1ccc(O)cc1)NC(=O)[C@@H](NC(=O)[C@H](CCCNC(=N)N)NC(=O)CNC(=O)[C@H](CO)NC(=O)[C@H](CO)NC(=O)[C@H](CCCNC(=N)N)NC(=O)[C@H](CO)NC(=O)[C@H](CCSC)NC(=O)[C@H](CCCNC(=N)N)NC(=O)[C@H](CCCCN)NC(=O)[C@H](CCC(=O)O)NC(=O)[C@H](Cc1c[nH]c2ccccc12)NC(=O)CNC(=O)[C@@H]1CCCN1C(=O)[C@@H]1CCCN1C(=O)[C@H](CC(C)C)NC(=O)[C@@H](N)CCCCN)C(C)C)C(=O)N[C@H](C(=O)N[C@@H](CC(N)=O)C(=O)N[C@@H](C)C(=O)N[C@@H](CO)C(=O)N[C@@H](CCC(N)=O)C(=O)N[C@@H](Cc1ccccc1)C(=O)N[C@@H](CCC(=O)O)C(=O)N[C@@H](CCCNC(=N)N)C(=O)N1CCC[C@H]1C(=O)N[C@@H](CO)C(=O)NCC(=O)O)[C@@H](C)O [27Q] | 10.8 ±0.2 | 56.4 ±0.2 |
| CC[C@H](C)[C@H](NC(=O)[C@H](Cc1c[nH]cn1)NC(=O)[C@H](CC(N)=O)NC(=O)[C@H](Cc1ccccc1)NC(=O)[C@H](Cc1ccc(O)cc1)NC(=O)[C@H](Cc1ccc(O)cc1)NC(=O)[C@@H](NC(=O)[C@H](CCCNC(=N)N)NC(=O)CNC(=O)[C@H](CO)NC(=O)[C@H](CO)NC(=O)[C@H](CCCNC(=N)N)NC(=O)[C@H](CO)NC(=O)[C@H](CCSC)NC(=O)[C@H](CCCNC(=N)N)NC(=O)[C@H](CCCCN)NC(=O)[C@H](CCC(=O)O)NC(=O)[C@H](Cc1c[nH]c2ccccc12)NC(=O)CNC(=O)[C@@H]1CCCN1C(=O)[C@@H]1CCCN1C(=O)[C@H](CC(C)C)NC(=O)[C@@H](N)CCCCN)C(C)C)C(=O)N[C@@H](CCC(N)=O)C(=O)N[C@@H](CC(N)=O)C(=O)N[C@@H](C)C(=O)N[C@@H](CO)C(=O)N[C@@H](CCC(N)=O)C(=O)N[C@@H](Cc1ccccc1)C(=O)N[C@@H](CCC(=O)O)C(=O)N[C@@H](CCCNC(=N)N)C(=O)N1CCC[C@H]1C(=O)N[C@@H](CO)C(=O)NCC(=O)O [29Q] | 47.2 ±2.6 | 45.3 ±0.5 |
